Results: ChEMBL document CHEMBL5512662, “Illuminating Dark Chemical Matter Using the Cell Painting Assay” (J Med Chem, 2024)

Key:
Shh Light II = assay: Inhibition of purmorphamine-induced osteoblast differentiation in mouse Shh Light II cells preincubated for 1 hr followed by purmorphamine addition for 48 hrs by luminescence based reporter gene assay; type: functional, cell-based
C3H 10T1/2 = assay: Inhibition of purmorphamine-induced osteoblast differentiation in mouse C3H 10T1/2 cells assessed as reduction in alkaline phosphatase level preincubated for 1 hr followed by purmorphamine addition for 4 days by luminescence based assay; type: functional, cell-based

Row | Structure (SMILES) | IC50 (Shh Light II) | IC50 (C3H 10T1/2)
1 | COCCNC(=O)C1CCN(C(=O)c2cc3sccc3n2Cc2ccc(F)cc2)CC1 | 470 nM | 90 nM
2 | CCOc1ccc(Oc2nc(Nc3ccc(C)cc3)nc(N(C)C)n2)nn1 | – | 320 nM
3 | CN(CCCNC(=O)c1nn(C)c2c1CS(=O)(=O)c1ccccc1-2)Cc1ccccc1 | 2170 nM | 310 nM
4 | COc1ccccc1CCNC(=O)CCCn1nc(C)c2c(C)n(-c3ccc(C)cc3)nc2c1=O | 1400 nM | 540 nM
